Reference: PubChem BioAssay AID2060896 (Molecular Pharmacology Branch, DTP, NCI, 2025)

Test system: 941728-121-R-J1-PDC complex spheroid viability
Test: Anticancer human tumor 941728-121-R-J1-PDC patient-derived lung adenocarcinoma cell line growth inhibition [RAS]
Details: for IC50: curve of first compound; for viability, T/C: stronger effect = lower value
Outline: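 Tumour cells grown as complex spheroids with HUVEC endothelial cells and mesenchymal stem cells, treated with RAS pathway inhibitor combinations. Each agent spans half-log steps from near clinical Cmax, or 10 microM where Cmax is unknown.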

[1] = second compound 0.000949 µM, first compound 0.0316 µM
[2] = second compound 0.000949 µM, first compound 0.1 µM
[3] = second compound 0.000949 µM, first compound 0.316 µM
[4] = second compound 0.000949 µM, first compound 1 µM
[5] = second compound 0.000949 µM, first compound 3.16 µM
[6] = second compound 0.000949 µM, first compound 10 µM
[7] = second compound 0.003 µM, first compound 0.0316 µM
[8] = second compound 0.003 µM, first compound 0.1 µM
[9] = second compound 0.003 µM, first compound 0.316 µM
[10] = second compound 0.003 µM, first compound 1 µM
[11] = second compound 0.003 µM, first compound 3.16 µM
[12] = second compound 0.003 µM, first compound 10 µM
[13] = second compound 0.00949 µM, first compound 0.0316 µM
[14] = second compound 0.00949 µM, first compound 0.1 µM
[15] = second compound 0.00949 µM, first compound 0.316 µM
[16] = second compound 0.00949 µM, first compound 1 µM
[17] = second compound 0.00949 µM, first compound 3.16 µM
[18] = second compound 0.00949 µM, first compound 10 µM
[19] = second compound 0.03 µM, first compound 0.0316 µM
[20] = second compound 0.03 µM, first compound 0.1 µM
[21] = second compound 0.03 µM, first compound 0.316 µM
[22] = second compound 0.03 µM, first compound 1 µM
[23] = second compound 0.03 µM, first compound 3.16 µM
[24] = second compound 0.03 µM, first compound 10 µM
[25] = second compound 0.0949 µM, first compound 0.0316 µM
[26] = second compound 0.0949 µM, first compound 0.1 µM
[27] = second compound 0.0949 µM, first compound 0.316 µM
[28] = second compound 0.0949 µM, first compound 1 µM
[29] = second compound 0.0949 µM, first compound 3.16 µM
[30] = second compound 0.0949 µM, first compound 10 µM
[31] = second compound 0.3 µM, first compound 0.0316 µM
[32] = second compound 0.3 µM, first compound 0.1 µM
[33] = second compound 0.3 µM, first compound 0.316 µM
[34] = second compound 0.3 µM, first compound 1 µM
[35] = second compound 0.3 µM, first compound 3.16 µM
[36] = second compound 0.3 µM, first compound 10 µM
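Further: spheroids exposed to compounds for 7 days before readout.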
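Wherever viability, T/C is given: 100% = DMSO vehicle control viability.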

In the case of CC1(O)CCCC1n1c(=O)c(C(F)F)cc2cnc(NC3CCN(S(C)(=O)=O)CC3)nc21 (centres undefined) + CCn1c(-c2cccnc2C(C)OC)c2c3cc(ccc31)N1CCOC(CC(NC(=O)C(C(C)C)N(C)C(=O)C3(F)CCN(C(=O)C#CC(C)(C)N(C)C)CC3)C(=O)N3CCCC(N3)C(=O)OCC(C)(C)C2)C1, the IC50 (second compound 0.000949 µM) is reported as < 31.6 nM, the IC50 (second compound 0.003 µM) is reported as < 31.6 nM and the IC50 (second compound 0.00949 µM) is reported as < 31.6 nM. For the same compound, the IC50 (second compound 0.03 µM) was < 31.6 nM, the IC50 (second compound 0.0949 µM) was < 31.6 nM and the IC50 (second compound 0.3 µM) was < 31.6 nM. The viability, T/C [1] was 22.3%, the viability, T/C [2] was 23.9% and the viability, T/C [3] was 24.1%. For the same compound, the viability, T/C [4] was 24.3%, the viability, T/C [5] was 26% and the viability, T/C [6] was 29.7%. It also gave a viability, T/C [7] of 24%, a viability, T/C [8] of 20.8% and a viability, T/C [9] of 24.2%. For the same compound, the viability, T/C [10] was 25.1%, the viability, T/C [11] was 24.6% and the viability, T/C [12] was 30.1%. It also gave a viability, T/C [13] of 21.4%, a viability, T/C [14] of 26.1% and a viability, T/C [15] of 21.9%. It also gave a viability, T/C [16] of 24.4%, a viability, T/C [17] of 22.6% and a viability, T/C [18] of 30.1%. It also gave a viability, T/C [19] of 23.1%, a viability, T/C [20] of 23% and a viability, T/C [21] of 23.6%. For the same compound, the viability, T/C [22] was 27.4%, the viability, T/C [23] was 20.1% and the viability, T/C [24] was 31%. It also gave a viability, T/C [25] of 21.5%, a viability, T/C [26] of 22.3% and a viability, T/C [27] of 26.5%. For the same compound, the viability, T/C [28] was 27.9%, the viability, T/C [29] was 17.9% and the viability, T/C [30] was 28.8%. It also gave a viability, T/C [31] of 22.5%, a viability, T/C [32] of 23.4% and a viability, T/C [33] of 23%. The viability, T/C [34] was 26.1%, the viability, T/C [35] was 20.8% and the viability, T/C [36] was 25.9%.
With CCC(CC)c1cc(NC2CCC(N)C2)n2nccc2n1 (centres undefined) + CCn1c(-c2cccnc2C(C)OC)c2c3cc(ccc31)N1CCOC(CC(NC(=O)C(C(C)C)N(C)C(=O)C3(F)CCN(C(=O)C#CC(C)(C)N(C)C)CC3)C(=O)N3CCCC(N3)C(=O)OCC(C)(C)C2)C1 the IC50 (second compound 0.000949 µM) was < 31.6 nM, the IC50 (second compound 0.003 µM) was < 31.6 nM and the IC50 (second compound 0.00949 µM) was < 31.6 nM. For the same compound, the IC50 (second compound 0.03 µM) was < 31.6 nM, the IC50 (second compound 0.0949 µM) was < 31.6 nM and the IC50 (second compound 0.3 µM) was < 31.6 nM. For the same compound, the viability, T/C [1] was 24.2%, the viability, T/C [2] was 25.9% and the viability, T/C [3] was 22.9%. For the same compound, the viability, T/C [4] was 31.1%, the viability, T/C [5] was 14.9% and the viability, T/C [6] was 32.4%. The viability, T/C [7] was 23.2%, the viability, T/C [8] was 24.3% and the viability, T/C [9] was 23%. The viability, T/C [10] was 29.3%, the viability, T/C [11] was 12.1% and the viability, T/C [12] was 39%. The viability, T/C [13] was 25.1%, the viability, T/C [14] was 23.2% and the viability, T/C [15] was 24.5%. For the same compound, the viability, T/C [16] was 31.1%, the viability, T/C [17] was 13.7% and the viability, T/C [18] was 40.9%. It also gave a viability, T/C [19] of 23%, a viability, T/C [20] of 25.1% and a viability, T/C [21] of 27.3%. The viability, T/C [22] was 33.5%, the viability, T/C [23] was 14.6% and the viability, T/C [24] was 45%. For the same compound, the viability, T/C [25] was 21.5%, the viability, T/C [26] was 24.5% and the viability, T/C [27] was 29%. The viability, T/C [28] was 32.5%, the viability, T/C [29] was 16.1% and the viability, T/C [30] was 48.7%. It also gave a viability, T/C [31] of 23.3%, a viability, T/C [32] of 26.9% and a viability, T/C [33] of 31.1%. It also gave a viability, T/C [34] of 33.1%, a viability, T/C [35] of 13.1% and a viability, T/C [36] of 44.8%.
